Results: ChEMBL document CHEMBL2074173, “Organic anion-transporting polypeptide B (OATP-B) and its functional comparison with three other OATPs of human liver” (Gastroenterology, 2001)
Where a SMILES comes first, the peptide text is derived from it. [ ]: non-standard residue; d: D form.

Columns and labels:
[1] = target: T1, Solute carrier organic anion transporter family member 1B3 (Homo sapiens, UniProt Q9NPD5); experiment: (§1) TP_TRANSPORTER: uptake in Xenopus laevis oocytes; format: functional, cell-based, Oocyte; conditions: oocyte
T1 sequence (Q9NPD5 whole entry): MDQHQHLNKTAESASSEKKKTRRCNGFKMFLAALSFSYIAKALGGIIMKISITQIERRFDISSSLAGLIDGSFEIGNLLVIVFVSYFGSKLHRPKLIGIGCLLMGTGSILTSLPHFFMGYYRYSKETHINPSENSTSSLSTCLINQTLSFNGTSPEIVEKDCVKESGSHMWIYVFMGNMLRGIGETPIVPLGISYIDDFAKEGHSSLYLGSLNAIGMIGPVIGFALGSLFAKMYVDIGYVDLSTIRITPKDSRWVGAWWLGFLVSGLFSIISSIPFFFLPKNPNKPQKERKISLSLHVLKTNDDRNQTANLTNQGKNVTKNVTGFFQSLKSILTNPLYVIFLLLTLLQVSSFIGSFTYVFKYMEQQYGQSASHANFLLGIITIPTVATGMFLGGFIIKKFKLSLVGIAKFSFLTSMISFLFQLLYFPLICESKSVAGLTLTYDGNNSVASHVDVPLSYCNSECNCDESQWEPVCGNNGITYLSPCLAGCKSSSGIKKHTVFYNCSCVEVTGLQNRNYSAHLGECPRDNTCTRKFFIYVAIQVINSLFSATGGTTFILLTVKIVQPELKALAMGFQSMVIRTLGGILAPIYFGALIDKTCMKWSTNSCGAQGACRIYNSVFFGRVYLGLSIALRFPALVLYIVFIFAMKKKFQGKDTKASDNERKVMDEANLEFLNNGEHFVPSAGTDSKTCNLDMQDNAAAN

[2] = target: T2, Solute carrier organic anion transporter family member 1B1 (Homo sapiens, UniProt Q9Y6L6); experiment: as §1; format: functional, cell-based; conditions: oocyte
T2 sequence (Q9Y6L6 whole entry): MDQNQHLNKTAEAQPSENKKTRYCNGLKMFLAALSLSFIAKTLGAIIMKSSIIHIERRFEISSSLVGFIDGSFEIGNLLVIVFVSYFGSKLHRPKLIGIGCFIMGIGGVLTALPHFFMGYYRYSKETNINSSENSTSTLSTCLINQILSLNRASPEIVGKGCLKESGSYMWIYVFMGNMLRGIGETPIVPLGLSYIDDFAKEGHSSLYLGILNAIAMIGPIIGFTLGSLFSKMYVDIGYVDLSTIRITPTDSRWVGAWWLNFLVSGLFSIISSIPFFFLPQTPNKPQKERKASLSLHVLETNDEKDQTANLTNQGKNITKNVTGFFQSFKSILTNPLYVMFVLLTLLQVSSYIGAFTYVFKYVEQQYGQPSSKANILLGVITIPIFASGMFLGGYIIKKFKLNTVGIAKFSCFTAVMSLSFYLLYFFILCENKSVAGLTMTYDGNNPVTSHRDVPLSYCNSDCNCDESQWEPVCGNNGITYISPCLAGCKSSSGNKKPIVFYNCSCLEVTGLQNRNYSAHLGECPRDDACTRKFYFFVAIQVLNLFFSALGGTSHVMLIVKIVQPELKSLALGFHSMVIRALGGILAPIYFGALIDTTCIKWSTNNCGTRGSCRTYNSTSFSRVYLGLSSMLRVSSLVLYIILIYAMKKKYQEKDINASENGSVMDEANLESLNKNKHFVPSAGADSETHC

[3] = target: T3, Solute carrier organic anion transporter family member 1A2 (Homo sapiens, UniProt P46721); experiment: as §1; format: functional, cell-based; conditions: oocyte
T3 sequence (P46721 whole entry): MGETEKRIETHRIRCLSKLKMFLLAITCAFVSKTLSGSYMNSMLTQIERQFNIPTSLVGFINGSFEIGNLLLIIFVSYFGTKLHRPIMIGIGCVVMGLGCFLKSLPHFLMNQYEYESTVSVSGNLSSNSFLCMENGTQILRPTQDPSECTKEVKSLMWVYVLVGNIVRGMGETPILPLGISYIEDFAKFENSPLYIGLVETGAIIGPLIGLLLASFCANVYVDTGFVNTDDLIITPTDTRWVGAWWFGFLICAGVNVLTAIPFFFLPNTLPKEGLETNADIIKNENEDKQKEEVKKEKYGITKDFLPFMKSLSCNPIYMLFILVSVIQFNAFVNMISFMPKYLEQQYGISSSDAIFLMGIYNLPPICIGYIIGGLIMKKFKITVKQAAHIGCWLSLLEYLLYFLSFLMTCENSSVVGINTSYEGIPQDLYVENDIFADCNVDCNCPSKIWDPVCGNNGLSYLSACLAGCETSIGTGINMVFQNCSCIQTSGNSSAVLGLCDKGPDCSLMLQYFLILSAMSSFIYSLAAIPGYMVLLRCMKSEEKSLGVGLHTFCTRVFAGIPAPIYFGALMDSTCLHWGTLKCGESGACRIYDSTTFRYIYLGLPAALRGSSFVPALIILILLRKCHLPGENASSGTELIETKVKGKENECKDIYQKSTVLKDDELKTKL

[4] = target: T4, Solute carrier organic anion transporter family member 2B1 (Homo sapiens, UniProt O94956); experiment: as §1; format: functional, cell-based; conditions: oocyte
T4 sequence (O94956 whole entry): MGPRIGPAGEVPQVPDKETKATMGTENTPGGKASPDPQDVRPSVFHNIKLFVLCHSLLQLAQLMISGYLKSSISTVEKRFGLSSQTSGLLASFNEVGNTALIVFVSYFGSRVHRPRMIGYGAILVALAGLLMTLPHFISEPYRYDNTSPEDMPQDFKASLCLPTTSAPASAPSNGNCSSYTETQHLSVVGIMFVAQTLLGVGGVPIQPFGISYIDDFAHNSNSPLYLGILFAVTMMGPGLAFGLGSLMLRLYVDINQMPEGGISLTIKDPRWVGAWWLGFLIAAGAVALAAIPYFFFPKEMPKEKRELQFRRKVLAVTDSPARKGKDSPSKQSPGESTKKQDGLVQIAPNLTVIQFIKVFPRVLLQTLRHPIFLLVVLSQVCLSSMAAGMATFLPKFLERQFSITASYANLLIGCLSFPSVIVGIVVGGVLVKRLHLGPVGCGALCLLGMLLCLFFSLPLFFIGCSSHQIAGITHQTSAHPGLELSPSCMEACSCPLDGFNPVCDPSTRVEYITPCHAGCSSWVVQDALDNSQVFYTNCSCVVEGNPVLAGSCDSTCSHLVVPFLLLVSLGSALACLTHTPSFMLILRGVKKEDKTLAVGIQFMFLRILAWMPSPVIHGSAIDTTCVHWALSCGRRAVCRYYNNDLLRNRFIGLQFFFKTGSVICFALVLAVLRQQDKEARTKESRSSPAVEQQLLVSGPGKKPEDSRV

[5] = target: T5, Solute carrier organic anion transporter family member 1B3 (OATP1B3, SLCO1B3) (Homo sapiens, UniProt Q9NPD5); experiment: as §1; format: functional, cell-based, Oocyte; conditions: Xenopus laevis oocytes expressing the transporter
T5 sequence (Q9NPD5 whole entry): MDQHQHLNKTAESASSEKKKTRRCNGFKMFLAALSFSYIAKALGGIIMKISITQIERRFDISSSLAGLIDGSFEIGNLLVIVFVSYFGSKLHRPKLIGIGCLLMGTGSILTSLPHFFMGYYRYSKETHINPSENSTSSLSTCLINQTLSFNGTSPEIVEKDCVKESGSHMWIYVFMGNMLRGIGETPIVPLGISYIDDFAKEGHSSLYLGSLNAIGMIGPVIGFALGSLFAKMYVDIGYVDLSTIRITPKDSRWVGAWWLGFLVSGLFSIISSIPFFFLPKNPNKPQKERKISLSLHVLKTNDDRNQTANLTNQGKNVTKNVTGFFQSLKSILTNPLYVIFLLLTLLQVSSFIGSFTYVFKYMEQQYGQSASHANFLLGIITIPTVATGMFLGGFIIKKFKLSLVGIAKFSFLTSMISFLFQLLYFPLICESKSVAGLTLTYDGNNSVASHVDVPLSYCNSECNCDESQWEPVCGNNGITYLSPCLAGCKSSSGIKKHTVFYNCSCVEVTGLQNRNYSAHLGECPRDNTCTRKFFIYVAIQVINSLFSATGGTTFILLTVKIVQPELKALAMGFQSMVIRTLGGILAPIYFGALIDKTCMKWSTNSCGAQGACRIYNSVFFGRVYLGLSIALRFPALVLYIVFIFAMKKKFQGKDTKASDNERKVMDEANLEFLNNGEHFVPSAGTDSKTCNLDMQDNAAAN

[6] = substrate: O=C1OC(c2ccc(O)c(S(=O)(=O)O)c2)(c2ccc(O)c(S(=O)(=O)O)c2)c2c(Br)c(Br)c(Br)c(Br)c21; experiment: as §1; format: functional, cell-based, Oocyte

Row | Molecule | Activity [1] | Activity [3] | also measured
1 | CC1(C)SSC(C)(C)[C@@H](NC(=O)[C@@H](N)Cc2ccc(O)cc2)C(=O)NCC(=O)N[C@@H](Cc2ccccc2)C(=O)N[C@H]1C(=O)O | substrate [+] |  | Activity [2]: substrate [+]
2 | CC(C)C[C@@H]1NC(=O)[C@@H](C(C)C)NC(=O)[C@@H]2CCCN2C(=O)[C@@H](CC(=O)O)NC(=O)[C@@H](Cc2c[nH]c3ccccc23)NC1=O [BQ-123] (cyclo(L[dW][dD]P[dV])) | substrate [+] | substrate [+] | Activity [2]: substrate [+]
3 | CC(C)[C@H](NC(=O)[C@H](CCC(=O)O)NC(=O)[C@H](Cc1ccccc1)NC(=O)[C@@H](C)NC(=O)[C@@H](N)Cc1ccc(O)cc1)C(=O)N[C@H](C(=O)NCC(N)=O)C(C)C [DELTORPHIN II] | substrate [+] |  | 
4 | CCCCC[C@H](O)/C=C/[C@H]1[C@H](O)CC(=O)[C@@H]1C/C=C\CCCC(=O)O [DINOPROSTONE] |  | substrate [+] | 
5 | C[C@]12CC[C@@H]3c4ccc(O)cc4CC[C@H]3[C@@H]1CC[C@@H]2O[C@@H]1O[C@H](C(=O)O)[C@@H](O)[C@H](O)[C@H]1O [ESTRADIOL 17B GLUCURONIDE] | substrate [+] | substrate [+] | 
6 | C[C@]12CC[C@@H]3c4ccc(OS(=O)(=O)O)cc4CC[C@H]3[C@@H]1CCC2=O [ESTRONE SULFURIC ACID] | substrate [+] |  | Activity [4]: substrate [+]
7 | C[C@H](CCC(=O)NCC(=O)O)[C@H]1CC[C@H]2[C@@H]3[C@H](O)C[C@@H]4C[C@H](O)CC[C@]4(C)[C@H]3C[C@H](O)[C@]12C [GLYCOCHOLIC ACID] | substrate [+] | substrate [+] | Activity [2]: substrate [+]
8 | CCCCC/C=C\C\C=C/C=C/C=C/[C@@H](SC[C@@H](NC(=O)CC[C@H](N)C(=O)O)C(=O)NCC(=O)O)[C@@H](O)CCCC(=O)O [LEUKOTRIEN C4] | substrate [+] |  | 
9 | N[C@@H](Cc1cc(I)c(Oc2cc(I)c(O)c(I)c2)c(I)c1)C(=O)O [LEVOTHYROXINE] | substrate [+] |  | 
10 | N[C@@H](Cc1cc(I)c(Oc2ccc(O)c(I)c2)c(I)c1)C(=O)O [LIOTHYRONINE] | substrate [+] |  | 
11 | C[C@@H]1O[C@@H](O[C@H]2C[C@@H](O)[C@]3(CO)[C@H]4[C@H](O)C[C@]5(C)[C@@H](C6=CC(=O)OC6)CC[C@]5(O)[C@@H]4CC[C@]3(O)C2)[C@H](O)[C@H](O)[C@H]1O [OUABAIN] | substrate [+] | substrate [+] | 
12 | C[C@]12CC[C@H](OS(=O)(=O)O)CC1=CC[C@@H]1[C@@H]2CC[C@]2(C)C(=O)CC[C@@H]12 [PRASTERONE SULFURIC ACID] | substrate [+] |  | Activity [4]: substrate [+]
13 | O=C1OC(c2ccc(O)c(S(=O)(=O)O)c2)(c2ccc(O)c(S(=O)(=O)O)c2)c2c(Br)c(Br)c(Br)c(Br)c21 [SULFOBROMOPHTHALEIN SODIUM] |  |  | Km [5]: 0.4 µM
14 | Solute carrier organic anion transporter family member 1B1 (Homo sapiens) (protein) MDQNQHLNKTAEAQPSENKKTRYCNGLKMFLAALSLSFIAKTLGAIIMKSSIIHIERRFEISSSLVGFIDGSFEIGNLLVIVFVSYFGSKLHRPKLIGIGCFIMGIGGVLTALPHFFMGYYRYSKETNINSSENSTSTLSTCLINQILSLNRASPEIVGKGCLKESGSYMWIYVFMGNMLRGIGETPIVPLGLSYIDDFAKEGHSSLYLGILNAIAMIGPIIGFTLGSLFSKMYVDIGYVDLSTIRITPTDSRWVGAWWLNFLVSGLFSIISSIPFFFLPQTPNKPQKERKASLSLHVLETNDEKDQTANLTNQGKNITKNVTGFFQSFKSILTNPLYVMFVLLTLLQVSSYIGAFTYVFKYVEQQYGQPSSKANILLGVITIPIFASGMFLGGYIIKKFKLNTVGIAKFSCFTAVMSLSFYLLYFFILCENKSVAGLTMTYDGNNPVTSHRDVPLSYCNSDCNCDESQWEPVCGNNGITYISPCLAGCKSSSGNKKPIVFYNCSCLEVTGLQNRNYSAHLGECPRDDACTRKFYFFVAIQVLNLFFSALGGTSHVMLIVKIVQPELKSLALGFHSMVIRALGGILAPIYFGALIDTTCIKWSTNNCGTRGSCRTYNSTSFSRVYLGLSSMLRVSSLVLYIILIYAMKKKYQEKDINASENGSVMDEANLESLNKNKHFVPSAGADSETHC |  |  | Km [6]: 0.3 µM
15 | Solute carrier organic anion transporter family member 2B1 (Homo sapiens) (protein) MGPRIGPAGEVPQVPDKETKATMGTENTPGGKASPDPQDVRPSVFHNIKLFVLCHSLLQLAQLMISGYLKSSISTVEKRFGLSSQTSGLLASFNEVGNTALIVFVSYFGSRVHRPRMIGYGAILVALAGLLMTLPHFISEPYRYDNTSPEDMPQDFKASLCLPTTSAPASAPSNGNCSSYTETQHLSVVGIMFVAQTLLGVGGVPIQPFGISYIDDFAHNSNSPLYLGILFAVTMMGPGLAFGLGSLMLRLYVDINQMPEGGISLTIKDPRWVGAWWLGFLIAAGAVALAAIPYFFFPKEMPKEKRELQFRRKVLAVTDSPARKGKDSPSKQSPGESTKKQDGLVQIAPNLTVIQFIKVFPRVLLQTLRHPIFLLVVLSQVCLSSMAAGMATFLPKFLERQFSITASYANLLIGCLSFPSVIVGIVVGGVLVKRLHLGPVGCGALCLLGMLLCLFFSLPLFFIGCSSHQIAGITHQTSAHPGLELSPSCMEACSCPLDGFNPVCDPSTRVEYITPCHAGCSSWVVQDALDNSQVFYTNCSCVVEGNPVLAGSCDSTCSHLVVPFLLLVSLGSALACLTHTPSFMLILRGVKKEDKTLAVGIQFMFLRILAWMPSPVIHGSAIDTTCVHWALSCGRRAVCRYYNNDLLRNRFIGLQFFFKTGSVICFALVLAVLRQQDKEARTKESRSSPAVEQQLLVSGPGKKPEDSRV |  |  | Km [6]: 0.7 µM
